In the assay the target is T1, human transferrin (htf) (Homo sapiens, UniProt P02787).
T1 construct: gene TF; single-chain glycoprotein of 679 amino acids (mature)
Put plainly: intrinsic fluorescence quenching, modified Stern-Volmer plot. The settings on record: 298 K; 4 uM htf, 0-8 uM citral; excitation 280 nm; double-log. Type of assay: binding. The source says: intrinsic fluorescence quenching, modified Stern-Volmer plot on human transferrin (htf)

Each structure is given as a SMILES string.

T1 sequence (P02787 20-698): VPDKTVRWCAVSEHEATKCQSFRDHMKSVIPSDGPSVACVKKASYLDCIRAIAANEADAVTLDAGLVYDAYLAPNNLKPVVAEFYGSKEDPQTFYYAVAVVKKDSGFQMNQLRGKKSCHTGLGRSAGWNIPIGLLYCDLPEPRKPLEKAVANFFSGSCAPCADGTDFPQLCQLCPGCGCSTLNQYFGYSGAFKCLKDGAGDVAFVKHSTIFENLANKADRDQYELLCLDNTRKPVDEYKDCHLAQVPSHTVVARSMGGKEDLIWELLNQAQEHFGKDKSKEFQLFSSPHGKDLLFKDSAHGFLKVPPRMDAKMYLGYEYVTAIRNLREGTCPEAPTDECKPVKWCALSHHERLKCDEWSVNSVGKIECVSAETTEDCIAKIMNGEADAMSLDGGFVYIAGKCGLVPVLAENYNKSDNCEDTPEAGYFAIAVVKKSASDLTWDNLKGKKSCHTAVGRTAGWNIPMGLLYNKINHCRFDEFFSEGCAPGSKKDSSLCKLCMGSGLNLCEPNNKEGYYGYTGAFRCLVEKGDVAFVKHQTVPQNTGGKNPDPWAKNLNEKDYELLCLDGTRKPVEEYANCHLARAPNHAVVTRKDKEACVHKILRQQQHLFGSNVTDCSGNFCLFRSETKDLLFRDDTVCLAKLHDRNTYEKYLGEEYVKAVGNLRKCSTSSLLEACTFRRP

Take `CC(C)=CCCC(C)=CC=O` [citral]: the “K 10^6M^-1” value is on record as 0.82 10^6 M^-1.

These data come from PMC467046, “Computational and spectroscopic insight into the binding of citral with human transferrin: Targeting neurodegenerative diseases” (Heliyon, 2024).
